According to patent US9708314B2, “Heterocyclic amide compound” (NISSAN CHEMICAL INDUSTRIES, LTD., priority 2013, dated 2017):
Several values for one entry are separate records, joined by “and”; a condition that tells them apart may be missing. Equal values may be shown once.

Experiments:
Assay type in all cases: in vivo
[1] = tested on: transplanted Oryza sativa; experiment: Test Example 1: effect on crop, application before weed generation in submerged conditions; settings: Application herbicide amount 320 g/ha; Seventeenth Table
In short: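 Water-diluted emulsion formulation is applied onto flood water (4 cm deep) covering alluvial soil on the day weed seeds are sown, after transplanting 2.5 leaf stage rice. Rates are expressed per hectare. Injury or control is graded 0–5 three weeks later.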

Scirpus juncoides = experiment: Test Example 2: herbicidal activity, application during weed generation in submerged conditions; settings: Eighteenth Table; application herbicide amount 320 g/ha
In short: (§1)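 Seeds were sown together in alluvial soil kept under 4 cm of water and grown at 25 °C to 30 °C. Once plants reached the one- to two-leaf stage, the diluted emulsion was applied to the water surface at a predetermined g/ha amount, and effects were rated 0–5 after three weeks.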

Monochoria vaginalis = experiment: as above; settings: Eighteenth Table; application herbicide amount 320 g/ha
In short: as §1

[2] = tested on: Echinochloa oryzacola Vasing.; experiment: as above; settings: Eighteenth Table; application herbicide amount 320 g/ha
In short: as §1

Row | SMILES | a: transplanted Oryza sativa (effect on crop grade) [1] | B (Scirpus juncoides) herbicidal ratio grade (Scirpus juncoides) | C (Monochoria vaginalis) herbicidal ratio grade (Monochoria vaginalis) | A (Echinochloa oryzicola Vasing.) herbicidal ratio grade [2]
1 | CC(C)c1nnc2c(C(=O)Nc3nnnn3C)ccc(C(F)F)n12 [2-047] | 4 (Herbicidal ratio of 70% or more and less than 90%) | 5 (Herbicidal ratio of 90% or more (almost completely withered)) | 4 (Herbicidal ratio of 70% or more and less than 90%) | 3 (Herbicidal ratio of 40% or more and less than 70%)
2 | CSCCn1nnnc1NC(=O)c1ccc(C(F)(F)F)n2c(C(C)C)nnc12 [2-048] | 4 (Herbicidal ratio of 70% or more and less than 90%) | 4 (Herbicidal ratio of 70% or more and less than 90%) | 3 (Herbicidal ratio of 40% or more and less than 70%) | 3 (Herbicidal ratio of 40% or more and less than 70%)
3 | CC(C)c1nnc2c(C(=O)Nc3nnnn3C)ccc(C(F)(F)C(F)(F)F)n12 [2-049] | 3 (Herbicidal ratio of 40% or more and less than 70%) | 5 (Herbicidal ratio of 90% or more (almost completely withered)) | 4 (Herbicidal ratio of 70% or more and less than 90%) | 5 (Herbicidal ratio of 90% or more (almost completely withered))
4 | CN(C)c1nnc2c(C(=O)Nc3nnnn3C)ccc(C(F)(F)F)n12 [2-051] | 4 (Herbicidal ratio of 70% or more and less than 90%) | 5 (Herbicidal ratio of 90% or more (almost completely withered)) | 5 (Herbicidal ratio of 90% or more (almost completely withered)) | 5 (Herbicidal ratio of 90% or more (almost completely withered))
5 | CSC(C)c1nnc2c(C(=O)Nc3nnnn3C)ccc(C(F)(F)F)n12 (stereo not drawn) [2-052] | 5 (Herbicidal ratio of 90% or more (almost completely withered)) | 4 (Herbicidal ratio of 70% or more and less than 90%) | 4 (Herbicidal ratio of 70% or more and less than 90%) | 5 (Herbicidal ratio of 90% or more (almost completely withered))
6 | CC(c1nnc2c(C(=O)Nc3nnnn3C)ccc(C(F)(F)F)n12)[S+](C)[O-] (stereo not drawn) [2-053] | 5 (Herbicidal ratio of 90% or more (almost completely withered)) | 4 (Herbicidal ratio of 70% or more and less than 90%) | 4 (Herbicidal ratio of 70% or more and less than 90%) | 5 (Herbicidal ratio of 90% or more (almost completely withered))
7 | CC(c1nnc2c(C(=O)Nc3nnnn3C)ccc(C(F)(F)F)n12)S(C)(=O)=O (stereo not drawn) [2-054] | 5 (Herbicidal ratio of 90% or more (almost completely withered)) | 4 (Herbicidal ratio of 70% or more and less than 90%) | 5 (Herbicidal ratio of 90% or more (almost completely withered)) | 5 (Herbicidal ratio of 90% or more (almost completely withered))
8 | Cn1nnnc1NC(=O)c1ccc(C(F)(F)F)n2c(Nc3ccccc3)nnc12 [2-056] | 1 (Herbicidal ratio of 5% or more and less than 20%) | 3 (Herbicidal ratio of 40% or more and less than 70%) | 3 (Herbicidal ratio of 40% or more and less than 70%) | 3 (Herbicidal ratio of 40% or more and less than 70%)
9 | CSCCc1nnc2c(C(=O)Nc3nnnn3C)ccc(C(F)(F)F)n12 [2-057] | 4 (Herbicidal ratio of 70% or more and less than 90%) | 4 (Herbicidal ratio of 70% or more and less than 90%) | 4 (Herbicidal ratio of 70% or more and less than 90%) | 4 (Herbicidal ratio of 70% or more and less than 90%)
10 | Cn1nnnc1NC(=O)c1ccc(C(F)(F)F)n2c(CC[S+](C)[O-])nnc12 (stereo not drawn) [2-058] | 5 (Herbicidal ratio of 90% or more (almost completely withered)) | 4 (Herbicidal ratio of 70% or more and less than 90%) | 4 (Herbicidal ratio of 70% or more and less than 90%) | 4 (Herbicidal ratio of 70% or more and less than 90%)
11 | Cn1nnnc1NC(=O)c1ccc(C(F)(F)F)n2c(CCS(C)(=O)=O)nnc12 [2-059] | 5 (Herbicidal ratio of 90% or more (almost completely withered)) | 3 (Herbicidal ratio of 40% or more and less than 70%) | 4 (Herbicidal ratio of 70% or more and less than 90%) | 4 (Herbicidal ratio of 70% or more and less than 90%)
12 | Cn1nnnc1NC(=O)c1ccc(C(F)(F)F)n2c(-c3ccc(Cl)nc3)nnc12 [2-060] | 5 (Herbicidal ratio of 90% or more (almost completely withered)) | 4 (Herbicidal ratio of 70% or more and less than 90%) and 3 (Herbicidal ratio of 40% or more and less than 70%) | 5 (Herbicidal ratio of 90% or more (almost completely withered)) | 5 (Herbicidal ratio of 90% or more (almost completely withered))
13 | Cn1nnnc1NC(=O)c1ccc(C(F)(F)F)n2c(-c3cccs3)nnc12 [2-061] | 4 (Herbicidal ratio of 70% or more and less than 90%) | 5 (Herbicidal ratio of 90% or more (almost completely withered)) | 5 (Herbicidal ratio of 90% or more (almost completely withered)) | 4 (Herbicidal ratio of 70% or more and less than 90%)
14 | Cc1cc(-c2nnc3c(C(=O)Nc4nnnn4C)ccc(C(F)(F)F)n23)n(C)n1 [2-062] | 5 (Herbicidal ratio of 90% or more (almost completely withered)) | 4 (Herbicidal ratio of 70% or more and less than 90%) | 5 (Herbicidal ratio of 90% or more (almost completely withered)) | 5 (Herbicidal ratio of 90% or more (almost completely withered))
15 | COc1cc(OC)cc(-c2nnc3c(C(=O)Nc4nnnn4C)ccc(C(F)(F)F)n23)c1 [2-063] | 4 (Herbicidal ratio of 70% or more and less than 90%) | 4 (Herbicidal ratio of 70% or more and less than 90%) | 5 (Herbicidal ratio of 90% or more (almost completely withered)) | 5 (Herbicidal ratio of 90% or more (almost completely withered))
16 | Cn1nnnc1NC(=O)c1ccc(C(F)(F)F)n2c(-c3cc(Cl)cc(Cl)c3)nnc12 [2-064] | 3 (Herbicidal ratio of 40% or more and less than 70%) | 4 (Herbicidal ratio of 70% or more and less than 90%) | 3 (Herbicidal ratio of 40% or more and less than 70%) | 3 (Herbicidal ratio of 40% or more and less than 70%)
17 | COc1ccc(Cc2nnc3c(C(=O)Nc4nnnn4C)ccc(C(F)(F)F)n23)cc1 [2-065] | 2 (Herbicidal ratio of 20% or more and less than 40%) | 4 (Herbicidal ratio of 70% or more and less than 90%) | 4 (Herbicidal ratio of 70% or more and less than 90%) | 5 (Herbicidal ratio of 90% or more (almost completely withered))
18 | Cn1nnnc1NC(=O)c1ccc(C(F)(F)F)n2c([S+](C)[O-])nnc12 (stereo not drawn) [2-067] | 5 (Herbicidal ratio of 90% or more (almost completely withered)) | 4 (Herbicidal ratio of 70% or more and less than 90%) | 5 (Herbicidal ratio of 90% or more (almost completely withered)) | 5 (Herbicidal ratio of 90% or more (almost completely withered))
19 | CCCSc1nnc2c(C(=O)Nc3nnnn3C)ccc(C(F)(F)F)n12 [2-068] | 5 (Herbicidal ratio of 90% or more (almost completely withered)) | 5 (Herbicidal ratio of 90% or more (almost completely withered)) | 4 (Herbicidal ratio of 70% or more and less than 90%) | 5 (Herbicidal ratio of 90% or more (almost completely withered))
20 | CCC[S+]([O-])c1nnc2c(C(=O)Nc3nnnn3C)ccc(C(F)(F)F)n12 (stereo not drawn) [2-069] | 5 (Herbicidal ratio of 90% or more (almost completely withered)) | 5 (Herbicidal ratio of 90% or more (almost completely withered)) | 5 (Herbicidal ratio of 90% or more (almost completely withered)) | 5 (Herbicidal ratio of 90% or more (almost completely withered))
21 | CCCS(=O)(=O)c1nnc2c(C(=O)Nc3nnnn3C)ccc(C(F)(F)F)n12 [2-070] | 4 (Herbicidal ratio of 70% or more and less than 90%) | 5 (Herbicidal ratio of 90% or more (almost completely withered)) | 5 (Herbicidal ratio of 90% or more (almost completely withered)) | 5 (Herbicidal ratio of 90% or more (almost completely withered))
